“And” between values parts separate entries of the source, which are not always exact repeats. Identical values can stand only once. Like-named read-outs stand apart in the source and are kept apart here.
Tests used:
MV4-11 cells = test: Resazurin-based viability assay, MV4-11; type: cell-based, Human; details: Homo sapiens, MV4-11; 72 h, resazurin; at least duplicate experiments
Description: (§1) In parallel to kinase assays, we measured the effect of compounds on the viability of cancer cell lines MV4-11 and K562 using a resazurin-based assay. MV4-11 is an AML cell line dependent on a constitutively activated FLT3-ITD kinase with high sensitivity to FLT3 inhibition, K562 cells (chronic myelogenous leukemia) are independent on FLT3.
(§2) Human cell lines were obtained from the European Collection of Authenticated Cell Cultures (K562) and Cell lines service (MV4-11) and were cultivated according to the provider’s instructions. Briefly, cells were maintained in RPMI-1640 (MV4-11) or DMEM (K562) supplemented with 10% fetal bovine serum, penicillin (100 U/mL), and streptomycin (0.1 mg/mL) at 37 °C in 5% CO2. For the viability assays, cells were treated in triplicate with six different doses of each compound for 72 h. After treatments, the resazurin (Sigma Aldrich, St. Louis, MO, USA) solution was added for 4 h, and the fluorescence of resorufin corresponding to live cells was measured at 544/590 nm (excitation/emission) using a Fluoroskan Ascent microplate reader (Labsystems). The GI50 value, the drug concentration lethal to 50% of the cells, was calculated from the dose-response curves that resulted from the assays.

CDK2/E = CDK2/E (Homo sapiens, UniProt P24941); test: Kinase inhibition assay CDK2/E; type: biochemical
Procedure: (§3) Newly prepared compounds 12–15 were assayed for inhibition of FLT3-ITD kinase as well as CDK4 and CDK2, known off-targets of structurally related compounds. We observed that CDK4 was sensitive to nearly all compounds with IC50 values in mid-nanomolar values.
(§4) CDK/cyclin complexes and FLT3 kinases were assayed as previously described. Protein kinase selectivity was evaluated at a single concentration (1 µM) by screening against 30 enzymes at Eurofins Discovery (France).

FLT3-ITD = molecular target: T1, FLT3-ITD (Homo sapiens, UniProt P36888, ITD); test: Kinase inhibition assay FLT3-ITD; type: biochemical
T1 sequence (P36888 27-993): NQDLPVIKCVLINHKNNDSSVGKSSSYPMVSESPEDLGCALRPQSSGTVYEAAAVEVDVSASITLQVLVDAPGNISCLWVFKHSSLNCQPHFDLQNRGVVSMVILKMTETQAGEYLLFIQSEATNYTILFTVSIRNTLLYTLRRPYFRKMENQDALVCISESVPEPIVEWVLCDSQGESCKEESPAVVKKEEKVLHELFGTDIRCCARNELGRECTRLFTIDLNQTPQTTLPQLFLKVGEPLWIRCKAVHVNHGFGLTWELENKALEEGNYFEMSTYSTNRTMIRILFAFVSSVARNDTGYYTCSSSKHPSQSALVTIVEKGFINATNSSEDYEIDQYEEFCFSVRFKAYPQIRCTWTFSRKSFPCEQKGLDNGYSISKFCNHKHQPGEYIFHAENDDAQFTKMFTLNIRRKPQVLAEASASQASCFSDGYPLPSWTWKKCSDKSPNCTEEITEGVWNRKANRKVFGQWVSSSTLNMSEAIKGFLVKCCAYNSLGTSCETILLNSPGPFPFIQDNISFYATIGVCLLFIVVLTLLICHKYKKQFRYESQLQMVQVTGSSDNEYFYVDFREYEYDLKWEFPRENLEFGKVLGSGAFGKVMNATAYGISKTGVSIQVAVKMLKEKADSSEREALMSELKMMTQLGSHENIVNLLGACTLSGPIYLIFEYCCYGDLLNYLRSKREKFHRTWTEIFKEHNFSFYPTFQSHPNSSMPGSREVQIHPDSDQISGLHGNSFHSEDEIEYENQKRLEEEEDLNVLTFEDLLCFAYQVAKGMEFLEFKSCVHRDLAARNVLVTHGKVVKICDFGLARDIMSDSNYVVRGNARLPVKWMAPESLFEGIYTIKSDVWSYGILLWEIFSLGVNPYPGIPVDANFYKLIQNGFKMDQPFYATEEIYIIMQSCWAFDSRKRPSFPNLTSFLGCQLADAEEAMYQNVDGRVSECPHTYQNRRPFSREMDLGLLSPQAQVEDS
Procedure: as §3, §4

K562 cells = test: Resazurin-based viability assay, K562; type: cell-based; details: Homo sapiens, 72 h, at least duplicate experiments
Description: as §1, §2

CDK4/D1 = CDK4/D1 (Homo sapiens, UniProt P11802); test: Kinase inhibition assay CDK4/D1; type: biochemical
Sequence of CDK4/D1 (P11802 whole entry): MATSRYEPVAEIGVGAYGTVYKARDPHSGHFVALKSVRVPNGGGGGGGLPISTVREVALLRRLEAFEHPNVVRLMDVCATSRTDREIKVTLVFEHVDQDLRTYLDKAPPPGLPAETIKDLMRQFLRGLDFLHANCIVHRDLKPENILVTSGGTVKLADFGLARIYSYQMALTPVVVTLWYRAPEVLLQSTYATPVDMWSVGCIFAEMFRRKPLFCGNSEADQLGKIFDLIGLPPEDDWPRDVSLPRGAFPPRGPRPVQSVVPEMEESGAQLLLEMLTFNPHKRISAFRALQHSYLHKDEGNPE
Sequence of CDK4/D1 (P24385 whole entry partner): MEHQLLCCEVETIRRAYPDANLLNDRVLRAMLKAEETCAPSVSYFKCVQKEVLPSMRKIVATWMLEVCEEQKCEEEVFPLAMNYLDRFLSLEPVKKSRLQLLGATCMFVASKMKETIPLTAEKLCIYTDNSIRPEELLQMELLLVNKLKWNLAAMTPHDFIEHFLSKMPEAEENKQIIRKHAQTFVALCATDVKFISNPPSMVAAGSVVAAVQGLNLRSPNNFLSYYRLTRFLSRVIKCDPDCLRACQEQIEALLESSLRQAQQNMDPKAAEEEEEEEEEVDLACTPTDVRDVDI
Procedure: as §3, §4

[1] = at least duplicate experiments, read-out: IC50 CDK2/E
[2] = at least duplicate experiments, read-out: IC50 FLT3-ITD
[3] = at least duplicate experiments, read-out: IC50 CDK4/D1

SMILES	GI50 (MV4-11 cells) [nM]	IC50 (CDK2/E; [1])	IC50 (FLT3-ITD; [2]) [nM]	melting point [°C]	GI50 (K562 cells) [nM]	IC50 (CDK4/D1; [3])	IC50 (FLT3-ITD; read-out: IC50 FLT3) [nM]	IC50 (CDK4/D1; read-out: IC50 CDK4) [nM]	IC50 (CDK2/E; read-out: IC50 CDK2) [nM]
COc1ccccc1-n1c(=O)n(C)c2cnc(Nc3ccc(N4CCNCC4)cc3)nc21 [14p]	310	1590 nM	306	185 to 187	370	2720 nM			
COc1ccc(Cn2c(=O)n(C)c3cnc(Nc4ccc(N5CCNCC5)cc4)nc32)c(OC)c1 [14r]	900	> 1000 nM and 20000 nM	456	102 to 104	11900	> 20000 nM			
Cn1c(=O)n(C=Cc2ccc(F)cc2)c2nc(Nc3ccc(N4CCNCC4)cc3)ncc21 [14t]	520	> 1000 nM and 7700 nM	345	248 to 250	2290	216 nM			
Cn1c(=O)n(C2CCC2)c2nc(Nc3ccc(N4CCNCC4)cc3)ncc21 [14c]	110	3900 nM	56		1040	524 nM	50 to 60	400 to 520	
Cn1c(=O)n([C@H]2CC[C@H](C)CC2)c2nc(Nc3ccc(N4CCNCC4)cc3)ncc21 [14g]	110	180 nM	68	114 to 116	1260	27 nM	≤ 300	≤ 300	≤ 300
Cn1c(=O)n(-c2cccc3ccccc23)c2nc(Nc3ccc(N4CCNCC4)cc3)ncc21 [14s]	330	> 1000 nM and 9530 nM	850		2530	> 1000 nM and 6900 nM			
CC1CCC(n2c(=O)n(C(C)C)c3cnc(Nc4ccc(N5CCNCC5)cc4)nc32)CC1 (centres unmarked) [15c]	130	4140 nM	40	264 to 266	1450	1100 nM			
Cn1c(=O)n([C@H]2CC[C@H](O)CC2)c2nc(Nc3ccc(N4CCNCC4)cc3)ncc21 [14f]	510	> 1000 nM and 2870 nM	132	272 to 274	9370	250 nM			
Cn1c(=O)n(C2CCOCC2)c2nc(Nc3ccc(N4CCNCC4)cc3)ncc21 [14k]	590	> 1000 nM and 9250 nM	450	124 to 126	18200	> 1000 nM and 2530 nM			
Cn1c(=O)n(-c2ccccc2)c2nc(Nc3ccc(N4CCNCC4)cc3)ncc21 [14m]	340	3740 nM	54	120 to 122	3030	400 nM	50 to 60	400 to 520	
FC(F)(F)c1nc2cnc(Nc3ccc(N4CCNCC4)cc3)nc2n1C1CCCCC1 [12b]	110	230 nM	60	218 to 220	1170	16 nM			
Cn1c(=O)n(C2CC2)c2nc(Nc3ccc(N4CCNCC4)cc3)ncc21 [14b]	710	> 20000 nM	642	156 to 158	45300	> 1000 nM and 8020 nM			

— PMC9782245, “Synthesis and Structural Optimization of 2,7,9-Trisubstituted purin-8-ones as FLT3-ITD Inhibitors” (International Journal of Molecular Sciences, 2022)
